Experiments:
[1] = target: T1, TrmDSA (Staphylococcus aureus, UniProt Q2FHJ8); assay: ITC; format: binding
T1 construct: gene trmD; full-length, N-terminal His tag (pET28b), expressed in E. coli BL21(DE3), tag kept
T1 sequence (Q2FHJ8 2-245): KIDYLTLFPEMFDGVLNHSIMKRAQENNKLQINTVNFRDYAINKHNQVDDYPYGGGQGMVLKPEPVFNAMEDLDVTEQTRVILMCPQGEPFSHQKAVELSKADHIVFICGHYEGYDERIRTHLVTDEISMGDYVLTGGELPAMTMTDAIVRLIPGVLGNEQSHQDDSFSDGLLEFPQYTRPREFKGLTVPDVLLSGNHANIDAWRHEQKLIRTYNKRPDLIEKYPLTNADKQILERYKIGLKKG

[2] = target: T2, TrmDEC (Escherichia coli, UniProt P0A873); assay: ITC; format: binding
T2 construct: gene trmD; full-length, N-terminal His tag (pET28b), expressed in E. coli BL21(DE3), tag kept
T2 sequence (P0A873 2-255): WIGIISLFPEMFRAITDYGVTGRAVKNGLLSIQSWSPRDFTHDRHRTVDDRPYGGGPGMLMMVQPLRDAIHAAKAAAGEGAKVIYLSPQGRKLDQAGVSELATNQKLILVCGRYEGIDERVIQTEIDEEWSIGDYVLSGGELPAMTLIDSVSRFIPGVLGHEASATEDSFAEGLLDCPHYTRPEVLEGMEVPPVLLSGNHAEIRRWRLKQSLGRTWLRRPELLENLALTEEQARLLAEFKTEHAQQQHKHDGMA

**Q.** Which Kd [1] does the source give for C[S+](CC[C@H](N)C(=O)O)C[C@H]1O[C@@H](n2cnc3c(N)ncnc32)[C@H](O)[C@@H]1O (some centres unmarked) [AdoMet] here?
**A.** 121 µM

**Q.** What about the Kd [2] of the same compound?
**A.** 21.5 µM
